Experiment [1] in a line: Selectivity index, ratio of IC50 for equine serum BuChE to IC50 for electric eel AChE.
A further experiment deals with PC-12. The experiment in a line: Neuroprotective activity against H2O2-induced cell death in rat PC12 cells assessed as cell viability 10 uM pretreated for three hours followed by H2O2 induction after 12 hrs by MTT assay relative to control. Format: functional. (Formazan colour is commonly taken as a measure of viable cells.)
A further experiment has as its target Cholinesterase (Equus caballus, UniProt P81908). Kind of experiment: Inhibition of equine serum BuChE using butyrylthiocholine iodide as substrate measured for 6 mins by Ellman's method. In general terms: In Ellman's method for cholinesterases, released thiocholine reacts with DTNB.
The target of experiment [2] is T1, Acetylcholinesterase (Electrophorus electricus, UniProt O42275). The experiment in a line: Inhibition of electric eel AChE using acetylthiocholine iodide as substrate measured for 6 mins by Ellman's method.
Experiment [3] concerns the target T1, Acetylcholinesterase. Kind of experiment: Mixed-type inhibition of electric eel AChE using varying levels of acetylthiocholine iodide as substrate measured for 2 mins by Lineweaver-Burk plot analysis.
Experiment [4] has as its target Beta-secretase 1 (Homo sapiens) (UniProt P56817). Kind of experiment: Inhibition of human BACE1 using Rh-EVNLDAEFK-quencher as substrate measured after 60 mins by FRET assay.

Here are results for 16 molecules from ChEMBL document CHEMBL4052662, “Synthesis, docking study and neuroprotective effects of some novel pyrano[3,2-c]chromene derivatives bearing morpholine/phenylpiperazine moiety” (Bioorg Med Chem, 2017).

What is called IC50 is the point on the concentration scale where inhibition reaches its midpoint. One may read the Ki as a dissociation constant, usually derived from enzyme kinetics or from competition with a known ligand. A word on the inhibition: it is how much of the control response was suppressed. High values mean strong suppression, low ones little suppression.

The structures appear in SMILES notation. A value given as a limit tells only on which side of the number the result lay.

Sequence of Cholinesterase (P81908 whole entry): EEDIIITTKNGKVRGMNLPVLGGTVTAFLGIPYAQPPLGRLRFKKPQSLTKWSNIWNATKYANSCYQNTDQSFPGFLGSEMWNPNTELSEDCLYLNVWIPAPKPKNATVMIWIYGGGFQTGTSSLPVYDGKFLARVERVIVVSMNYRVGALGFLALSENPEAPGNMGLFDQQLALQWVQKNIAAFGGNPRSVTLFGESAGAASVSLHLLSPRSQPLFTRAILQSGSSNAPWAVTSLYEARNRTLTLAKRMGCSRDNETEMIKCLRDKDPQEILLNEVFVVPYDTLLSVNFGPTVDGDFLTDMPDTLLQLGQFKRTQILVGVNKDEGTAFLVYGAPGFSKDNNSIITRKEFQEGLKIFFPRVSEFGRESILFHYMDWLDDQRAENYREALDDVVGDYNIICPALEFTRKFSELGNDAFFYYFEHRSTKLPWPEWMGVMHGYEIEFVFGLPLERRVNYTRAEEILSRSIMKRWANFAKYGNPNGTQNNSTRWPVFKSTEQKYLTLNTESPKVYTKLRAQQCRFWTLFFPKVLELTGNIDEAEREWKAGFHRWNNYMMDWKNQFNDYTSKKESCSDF
T1 sequence (O42275 whole entry): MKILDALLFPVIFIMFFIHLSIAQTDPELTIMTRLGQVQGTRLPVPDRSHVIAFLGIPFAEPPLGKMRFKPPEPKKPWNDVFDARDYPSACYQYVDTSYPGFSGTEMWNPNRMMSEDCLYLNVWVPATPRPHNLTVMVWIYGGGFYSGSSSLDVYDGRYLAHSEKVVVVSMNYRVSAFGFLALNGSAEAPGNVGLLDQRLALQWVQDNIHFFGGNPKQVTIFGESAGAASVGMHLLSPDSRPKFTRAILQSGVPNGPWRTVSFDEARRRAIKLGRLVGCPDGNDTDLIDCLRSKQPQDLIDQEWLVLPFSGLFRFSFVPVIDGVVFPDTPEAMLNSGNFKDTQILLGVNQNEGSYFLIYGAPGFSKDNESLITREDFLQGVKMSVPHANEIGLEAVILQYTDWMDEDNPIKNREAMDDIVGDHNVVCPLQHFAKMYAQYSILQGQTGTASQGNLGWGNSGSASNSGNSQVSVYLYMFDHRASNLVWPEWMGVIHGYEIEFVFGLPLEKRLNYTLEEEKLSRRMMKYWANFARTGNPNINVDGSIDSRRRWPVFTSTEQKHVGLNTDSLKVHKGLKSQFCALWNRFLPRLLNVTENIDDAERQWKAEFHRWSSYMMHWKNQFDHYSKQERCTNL
Sequence of Beta-secretase 1 (Homo sapiens) (P56817 whole entry): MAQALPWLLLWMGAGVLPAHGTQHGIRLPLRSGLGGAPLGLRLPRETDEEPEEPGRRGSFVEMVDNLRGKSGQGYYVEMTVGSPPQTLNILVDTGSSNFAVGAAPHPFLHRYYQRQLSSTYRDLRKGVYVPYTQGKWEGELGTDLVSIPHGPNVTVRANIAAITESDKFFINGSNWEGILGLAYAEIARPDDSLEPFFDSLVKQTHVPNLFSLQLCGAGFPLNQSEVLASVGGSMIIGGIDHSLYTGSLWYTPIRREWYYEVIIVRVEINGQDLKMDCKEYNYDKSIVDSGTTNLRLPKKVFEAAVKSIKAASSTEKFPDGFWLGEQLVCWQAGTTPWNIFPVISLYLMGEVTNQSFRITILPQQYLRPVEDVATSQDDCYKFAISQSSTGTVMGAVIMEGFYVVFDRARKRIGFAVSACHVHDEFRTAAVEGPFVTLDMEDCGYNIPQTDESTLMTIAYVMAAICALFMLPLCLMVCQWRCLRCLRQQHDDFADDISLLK

As to `N#CC1=C(NC(=O)CN2CCN(c3ccccc3)CC2)Oc2c(c(=O)oc3ccccc23)C1c1ccc(Cl)cc1` (configuration not stated), the Ratio IC50 in experiment [1] is 14.1. Further, in the experiment with PC-12, the Activity is given as 75%. Besides, the values for the IC50 on Cholinesterase (read-out: IC50) and on Acetylcholinesterase [2] (read-out: IC50) were 89.2 µM and 6.33 µM, respectively.
Consider `N#CC1=C(NC(=O)CN2CCN(c3ccccc3)CC2)Oc2c(c(=O)oc3ccccc23)C1c1ccc(F)cc1` (configuration not stated), for which the IC50 result on Cholinesterase and on Acetylcholinesterase [2] was “Nd(Insoluble)” throughout.
Regarding `COc1ccc(C2C(C#N)=C(NC(=O)CN3CCOCC3)Oc3c2c(=O)oc2ccccc32)cc1` (configuration not stated), the Ratio IC50 in experiment [1] worked out at 31.1. Also, in the experiment with PC-12, the Activity is listed as 78.5%. In addition, the IC50 amounted to 63.8 µM on Cholinesterase (read-out: IC50) and 2.05 µM at Acetylcholinesterase [2] (read-out: IC50).
Turning to `N#CC1=C(NC(=O)CN2CCOCC2)Oc2c(c(=O)oc3ccccc23)C1c1ccc(F)cc1` (configuration not stated), the IC50 at Cholinesterase (read-out: IC50) and on Acetylcholinesterase [2] (read-out: IC50) was above 100 µM throughout.
On to `COc1ccc(C2C(C#N)=C(NC(=O)CN3CCN(c4ccccc4)CC3)Oc3c2c(=O)oc2ccccc32)cc1OC` (configuration not stated), for which, in experiment [1], the Ratio IC50 is 41. Also, the Activity in the experiment with PC-12 was 76%. Further, the figures for the IC50 on Cholinesterase (read-out: IC50) and on Acetylcholinesterase [2] (read-out: IC50) were 58.2 µM and 1.42 µM, respectively.
As for `N#CC1=C(NC(=O)CN2CCOCC2)Oc2c(c(=O)oc3ccccc23)C1c1ccccc1` (configuration not stated), in experiment [1], the Ratio IC50 turned out to be 3.7. In addition, the IC50 on Cholinesterase (read-out: IC50) came out at 88.4 µM; at Acetylcholinesterase [2] (read-out: IC50), 23.9 µM.
With `N#CC1=C(NC(=O)CN2CCN(c3ccccc3)CC2)Oc2c(c(=O)oc3ccccc23)C1c1ccccc1` (configuration not stated), in experiment [1], the Ratio IC50 was 4.5. The IC50 stood at 52.3 µM on Cholinesterase (read-out: IC50) and 11.5 µM on Acetylcholinesterase [2] (read-out: IC50).
In turn, `COc1ccc(C2C(C#N)=C(NC(=O)CN3CCN(c4ccccc4)CC3)Oc3c2c(=O)oc2ccccc32)cc1` (configuration not stated) showed a Ki at Acetylcholinesterase [3] of 3.19 µM. Moreover, the inhibition in experiment [4] was 18%. Further, the Ratio IC50 in experiment [1] stood at 40.8. In addition, in the experiment on PC-12, the Activity is listed as 84.7%. Also, the IC50 at Cholinesterase (read-out: IC50) came out at 45.7 µM; at Acetylcholinesterase [2] (read-out: IC50), 1.12 µM.
As to `Cc1ccc(C2C(C#N)=C(NC(=O)CN3CCN(c4ccccc4)CC3)Oc3c2c(=O)oc2ccccc32)c(C)c1` (configuration not stated), the IC50 was above 100 µM at Cholinesterase (read-out: IC50) and 32.9 µM at Acetylcholinesterase [2] (read-out: IC50).
Take `N#CC1=C(NC(=O)CN2CCOCC2)Oc2c(c(=O)oc3ccccc23)C1c1ccc(Cl)cc1` (configuration not stated): in experiment [1], the Ratio IC50 came out at 6.3. The IC50 worked out at 91.5 µM at Cholinesterase (read-out: IC50) and 14.6 µM on Acetylcholinesterase [2] (read-out: IC50).
Regarding `COc1ccc(C2C(C#N)=C(NC(=O)CN3CCOCC3)Oc3c2c(=O)oc2ccccc32)cc1OC` (configuration not stated), the Ratio IC50 in experiment [1] came to 10.5. Moreover, in the experiment on PC-12, the Activity amounted to 84.7%. For the same molecule, the values for the concentration for half-maximal inhibition (IC50) at Cholinesterase (read-out: IC50) and at Acetylcholinesterase [2] (read-out: IC50) were 34.2 µM and 3.25 µM, respectively.
Consider `COc1ccc(C2C(C#N)=C(NC(=O)CN3CCN(c4ccccc4)CC3)Oc3c2c(=O)oc2ccccc32)c(OC)c1` (configuration not stated), for which the IC50 at Cholinesterase (read-out: IC50) is above 100 µM; on Acetylcholinesterase [2] (read-out: IC50) it was 31.4 µM.
Take `N#CC1=C(NC(=O)CN2CCN(c3ccccc3)CC2)Oc2c(c(=O)oc3ccccc23)C1c1ccc([N+](=O)[O-])cc1` (configuration not stated): the IC50 entry at Cholinesterase and against Acetylcholinesterase [2] was “Nd(Insoluble)” throughout.
In the case of `N#CC1=C(NC(=O)CN2CCOCC2)Oc2c(c(=O)oc3ccccc23)C1c1cccs1` (configuration not stated), the 50% inhibitory concentration (IC50) on Cholinesterase (read-out: IC50) and at Acetylcholinesterase [2] (read-out: IC50) was above 100 µM in each case.
Regarding `N#CC1=C(NC(=O)CN2CCOCC2)Oc2c(c(=O)oc3ccccc23)C1c1ccc([N+](=O)[O-])cc1` (configuration not stated), the IC50 on Cholinesterase (read-out: IC50) and on Acetylcholinesterase [2] (read-out: IC50) was above 100 µM in each case.
Take `COc1ccc(C2C(C#N)=C(NC(=O)CN3CCOCC3)Oc3c2c(=O)oc2ccccc32)c(OC)c1` (configuration not stated): the IC50 is above 100 µM at Cholinesterase (read-out: IC50) and 25.6 µM at Acetylcholinesterase [2] (read-out: IC50).
